# Experiment: High throughput metabolic stability in human microsomes
# Type: in vitro ADME
# Conditions: parent compound remaining at 10 minutes, human liver microsomes
# Method: The metabolic stability assay evaluates CYP-mediated metabolic stability in vitro using Human liver microsomes after a ten-minute incubation.
# Test compound is received as a 3.5 mM stock solution in 100 percent DMSO. Compound is diluted to create a 50 μM acetonitrile (ACN) solution containing 1.4% DMSO, which is then used as a 100× stock for incubation with human liver microsomes. Each compound is tested in duplicate. Compound, NADPH and liver microsome solutions are combined for incubation in three steps: • 1) 152 μl of liver microsome suspension, protein concentration of 1.1 mg/ml in 100 mM NaPi, pH 7.4, 5 mM MgCl2 buffer, is pre-warmed at 37° C. • 2) 1.7 μl of 50 μM compound (98.6% ACN, 1.4% DMSO) is added to the same tube and pre-incubated at 37° C. for 5 minutes. • 3) The reaction is initiated by the addition of 17 μl of pre-warmed 10 mM NADPH solution in 100 mM NaPi, pH 7.4.
# Reaction components are mixed well, and 75 μl are immediately transferred into 150 μl quench/stop solution (zero-time point, T0). Reactions are incubated at 37° C. for 10 minutes and then an additional 75 μl aliquot is transferred into 150 μl quench solution. Acetonitrile containing 100 μM DMN (a UV standard for injection quality control), is used as the quench solution to terminate metabolic reactions.
# Quenched mixtures are centrifuged at 1500 rpm (˜500× g) in an Allegra X-12 centrifuge, SX4750 rotor (Beckman Coulter Inc., Fullerton, Calif.) for fifteen minutes to pellet denatured microsomes. A volume of 90 μl of supernatant extract, containing the mixture of parent compound and its metabolites, is then transferred to a separate 96-well plate for UV-LC/MS-MS analysis to determine the per cent of parent compound that is remaining in the mixture.
# The mass spectrometric conditions obtained from automated infusion are used to analyze incubation samples from the Metabolic Stability assay. The injection volume is 5 μl and the flow rate is 0.8 ml/min. The gradient used is show in the table below. All samples are injected with the gradient using mobile phase A and B first. If necessary (for instance, for chromatographic reasons), samples are re-injected with the same gradient, but using mobile phase C and D. All LC-MS/MS analysis parameters are captured electronically in the raw data files.
# Peak integration is performed with the Xcalibur™ software. The percent remaining calculation is performed by comparing the LC-MS/MS peak areas from the T10minute samples to those from the T0minute samples for each compound.
row,Human Microsome % Remaining [%],Compound
1,>80,"CC(C)(O)c1cn(-c2ccc(-c3cc(F)c(CO)c(S(C)(=O)=O)c3)cc2F)c(Cc2ccccc2C(F)(F)F)n1 [Example 12, 2-(1-(3,3′-difluoro-4′-(hydroxymethyl)-5′-(methylsulfonyl)biphenyl-4-yl)-2-(2-(trifluoromethyl)benzyl)-1H-imidazol-4-yl)propan-2-ol]"
2,>80,"CC(C)(O)c1cn(-c2ccc(-c3cc(F)c(CO)c(S(C)(=O)=O)c3)cc2Cl)c(C(C)(C)c2c(Cl)cccc2Cl)n1 [Example 3, 2-(1-(3-chloro-3′-fluoro-4′-(hydroxymethyl)-5′-(methylsulfonyl)biphenyl-4-yl)-2-(2-(2,6-dichlorophenyl)propan-2-yl)-1H-imidazol-4-yl)propan-2-ol]"
3,>80,"CC(C)(O)c1cn(-c2ccc(-c3cc(F)c(CO)c(S(C)(=O)=O)c3)cc2F)c(C(C)(C)c2ccccc2Cl)n1 [Example 6, 2-(2-(2-(2-Chloro-phenyl)propan-2-yl)-1-(3,3′-difluoro-4′-hydroxymethyl-5′-(methylsulfonyl)biphenyl-4-yl)-1H-imidazol-4-yl)-propan-2-ol]"
4,>80,"CC(C)(O)c1cn(-c2ccc(-c3cc(F)c(CO)c(S(C)(=O)=O)c3)cc2)c(Cc2ccc(Cl)cc2Cl)n1 [Example 15, 2-(2-(2,4-dichlorobenzyl)-1-(3′-fluoro-4′-(hydroxymethyl)-5′-(methylsulfonyl)biphenyl-4-yl)-1H-imidazol-4-yl)propan-2-ol]"
5,>80,"Cc1cc(-c2cc(F)c(CO)c(S(C)(=O)=O)c2)ccc1-n1cc(C(C)(C)O)nc1C(C)(C)c1c(F)cccc1Cl [Example 2, 2-(2-(2-(2-chloro-6-fluorophenyl)propan-2-yl)-1-(3′-fluoro-4′-(hydroxymethyl)-3-methyl-5′-(methylsulfonyl)biphenyl-4-yl)-1H-imidazol-4-yl)propan-2-ol]"
6,>80,"Cc1ccccc1Cc1nc(C(C)(C)O)cn1-c1ccc(-c2cc(F)c(CO)c(S(C)(=O)=O)c2)cc1 [Example 17, 2-(1-(3′-fluoro-4′-(hydroxymethyl)-5′-(methylsulfonyl)biphenyl-4-yl)-2-(2-methylbenzyl)-1H-imidazol-4-yl)propan-2-ol]"
7,>80,"CC(C)(O)c1cn(-c2ccc(-c3cc(F)c(CO)c(S(C)(=O)=O)c3)cc2F)c(Cc2ccc(F)cc2Cl)n1 [Example 14, 2-(2-(2-chloro-4-fluorobenzyl)-1-(3,3′-difluoro-4′-(hydroxymethyl)-5′-(methylsulfonyl)biphenyl-4-yl)-1H-imidazol-4-yl)propan-2-ol]"
8,>80,"CC(C)(O)c1cn(-c2ccc(-c3cc(F)c(CO)c(S(C)(=O)=O)c3)cc2Cl)c(Cc2ccc(F)cc2Cl)n1 [Example 13, 2-(1-(3-chloro-3′-fluoro-4′-(hydroxymethyl)-5′-(methylsulfonyl)biphenyl-4-yl)-2-(2-chloro-4-fluorobenzyl)-1H-imidazol-4-yl)propan-2-ol]"
9,>80,"CC(C)(O)c1cn(-c2ccc(-c3cc(F)c(CO)c(S(C)(=O)=O)c3)cc2F)c(C(C)(C)c2ccccc2F)n1 [Example 8, 2-{1-(3,3′-Difluoro-4′-hydroxymethyl-5′-methanesulfonyl-biphenyl-4-yl)-2-[2-(2-fluorophenyl)propan-2-yl]-1H-imidazol-4-yl}-propan-2-ol]"
10,>80,"CC(C)(O)c1cn(-c2ccc(-c3cc(F)c(CO)c(S(C)(=O)=O)c3)cc2)c(Cc2cc(F)ccc2Cl)n1 [Example 19, 2-[2-(2-Chloro-5-fluoro-benzyl)-1-(3′-fluoro-4′-hydroxymethyl-5′-methanesulfonyl-biphenyl-4-yl)-1H-imidazol-4-yl]-propan-2-ol]"
11,>80,"CC(C)(O)c1cn(-c2ccc(-c3cc(F)c(CO)c(S(C)(=O)=O)c3)cc2)c(C(C)(C)c2c(Cl)cccc2Cl)n1 [Example 5, 2-(2-(2-(2,6-dichlorophenyl)propan-2-yl)-1-(3′-fluoro-4′-(hydroxymethyl)-5′-(methylsulfonyl)biphenyl-4-yl)-1H-imidazol-4-yl)propan-2-ol]"
